# Patent US6465631B1, “Lipid a 4′ kinase” (Duke University, priority 1997, dated 2002)
# Molecular target: T1, lipid A 4′ kinase (Escherichia coli, UniProt P27300)
# T1 construct: The first primer introduces a Nde I site at the start codon of orfE, and the second primer introduces a BamHl site downstream of the stop codon; made in house; host or cells: E. coli BLR(DE3)pLysS/pJK2 (pET3a, T7 promoter); Controls with chromosomal kinase only: BR7 membranes and BLR(DE3)pLysS/pET3a fractions
# Test: 4′ kinase assay method II ([γ-32P]ATP donor, lipid acceptor, TLC)
# Format: biochemical, E. coli
# Conditions: for utilisation as substrate of the 4′ kinase (in words): recombinant, overexpressed 4′ kinase (BLR(DE3)pLysS/pJK2 membranes); for 32P from input [γ-32P]-ATP incorporated into 4′-phosphorylated product (yield): 0.6 μM [γ-32P]ATP, 100 μM lipid acceptor, 10 min, 30° C.
# Description: FIG. 12: Effective phosphorylation of DS-1-P and DS-1-P analogs with recombinant, overproduced 4′ kinase. Washed membranes from strain BR7 and BLR(DE3)pLysS/pJK2 were used, as indicated, in 4′ kinase assays containing 100 μM of the indicated DS-1-P analog, 0.6 μM [γ-^32P] ATP, 50 mM Tris, pH 8.5, 5 mM MgCl2, 1% NP-40, 1 mg/ml cardiolipin and 0.5 mg/ml washed membranes. After a 10 minute incubation at 30° C., 5 μl of the reaction was spotted onto a Silica Gel 60 TLC plate and developed in chloroform:pyridine:formic acid:water (30:70:16:10 v/v). The plate was dried, exposed to a PhosphorImager screen and visualized using ImageQuant software. Arrows indicate the products of the reactions. If the native substrate DS-1-P is present in the reaction, [4′-^32P]-lipid IVA is formed. When 3-aza-DS-1-P, base-treated DS-1-P, or base-treated 3-aza-DS-1-P are present, 4′ phosphorylated products a, b and c are formed, respectively. The migration of each of these products is slower than the non-phosphorylated substrate analog, consistent with the phosphate incorporation. As in FIG. 9, BLR/pJK2 is an abbreviation for BLR(DE3)pLysS/pJK2, and NE indicates the no enzyme control. […] Minor ^32P containing lipids generated by membranes of BLR(DE3)pLysS/pJK2 in the absence of any acceptor substrate arise by the action of diglyceride kinase on endogenous glycerophospholipids (see especially Lane 6). The diglyceride kinase is inactivated by mutation in strain BR7 (Hampton et al, Methods in Enzymology 209:466 (1992)).
# Assays for 4′ kinase activity. Two methods for analyzing 4′ kinase activity of various protein fractions were employed. The first (method I) utilizes DS-1-^32P as the labeled substrate. Typically, 100 μM DS-1-^32P (1000 cpm/nmol), 1 mg/ml cardiolipin, 50 mM Tris, pH 8.5, 5 mM ATP, 1% NP-40, and 5 mM MgCl2 are mixed with 0.5-500 μg/ml protein fraction and incubated at 30° C. for various times. Reactions were stopped by spotting a portion of the reaction onto a Silica Gel 60 thin layer chromatography plate. Plates were developed in chloroform:methanol:water:acetic acid (25:15:4:2, v/v) and analyzed as described above. Method II (which is not intended for the quantitative determination of specific activities) utilizes [γ-^32P] ATP (˜8×10^6 cpm/nmol) as the labeled substrate. The reaction conditions are exactly the same as for method I except that the ATP concentration is lowered to 0.6 μM and only non-radioactive DS-1-P (final concentration of 100 μM) is added. The reactions were stopped as described above, and plates were developed in chloroform:pyridine:formic acid:water (30:70:16:10, v/v).
# Each lipid analog was tested as a 4′ kinase substrate using recombinant, overexpressed 4′ kinase in conjunction with the method II assay conditions (0.6 μM [γ-^32P]-ATP as the phosphate donor and 100 μM lipid acceptor). DS-1-P becomes phosphorylated to form [4′-^32P]-lipid IVA by BR7 membranes (containing wild-type kinase levels), but only with a yield of ˜0.5% (FIG. 11, lane 2). When BLR(DE3)pLysS/pJK2 membranes are used (FIG. 12, lane 7) more than 50% of the ^32P is incorporated into [4′-^32P]-lipid IVA. […] Products (b) and (c) are formed from base-treated DS-1-P and base treated 3-aza-DS-1-P, respectively.
# T1 sequence (P27300 whole entry): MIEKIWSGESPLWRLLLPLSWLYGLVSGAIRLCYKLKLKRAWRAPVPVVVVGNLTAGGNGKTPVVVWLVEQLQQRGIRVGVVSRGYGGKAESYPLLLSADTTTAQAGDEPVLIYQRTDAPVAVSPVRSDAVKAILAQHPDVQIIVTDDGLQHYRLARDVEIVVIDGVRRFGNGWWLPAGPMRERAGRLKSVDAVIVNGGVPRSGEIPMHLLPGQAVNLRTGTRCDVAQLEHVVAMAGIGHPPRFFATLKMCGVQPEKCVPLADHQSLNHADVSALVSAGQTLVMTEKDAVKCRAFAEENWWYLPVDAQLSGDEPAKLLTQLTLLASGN
compound,measurement,setting,value
"2,3-diacyl-glucosamine-1-phosphate [Lipid X]",utilisation as substrate of the 4′ kinase (in words),,not substrates
"UDP-2,3-diacyl-glucosamine [UDP-diacylglucosamine]",utilisation as substrate of the 4′ kinase (in words),,not substrates
"CCCCCCCCCCC[C@@H](O)CC(=O)N[C@H]1[C@H](OC[C@H]2O[C@H](OP(=O)(O)O)[C@H](NC(=O)C[C@H](O)CCCCCCCCCCC)[C@@H](OC(=O)C[C@H](O)CCCCCCCCCCC)[C@@H]2O)O[C@H](CO)[C@@H](O)[C@@H]1OC(=O)C[C@H](O)CCCCCCCCCCC [DS-1-P, tetraacyldisaccharide-1-phosphate]",32P from input [γ-32P]-ATP incorporated into 4′-phosphorylated product (yield),"BLR(DE3)pLysS/pJK2 membranes (recombinant, overexpressed 4′ kinase)",more than 50%
same,32P from input [γ-32P]-ATP incorporated into 4′-phosphorylated product (yield),BR7 membranes (wild-type kinase levels),~0.5%
same,utilisation as substrate of the 4′ kinase (in words),,large amount
